The source made the active and inactive calls. Cut-off read from the data, not from the text of the source, for most assays here: actives have a measured EC50 and inactives only a lower limit.
Key:
[1] = biological target: T1, Protein RecA (Mycobacterium tuberculosis, UniProt P9WHJ3); assay: Fluorescence Cell-Free Homogeneous Dose Retest to Identify Inhibitors of RecA-Intein Splicing Activity. [Related pubchem assays (depositor defined):AID2097, AID2223, AID489010, AID492950]; type: functional
T1 sequence (P9WHJ3 whole entry): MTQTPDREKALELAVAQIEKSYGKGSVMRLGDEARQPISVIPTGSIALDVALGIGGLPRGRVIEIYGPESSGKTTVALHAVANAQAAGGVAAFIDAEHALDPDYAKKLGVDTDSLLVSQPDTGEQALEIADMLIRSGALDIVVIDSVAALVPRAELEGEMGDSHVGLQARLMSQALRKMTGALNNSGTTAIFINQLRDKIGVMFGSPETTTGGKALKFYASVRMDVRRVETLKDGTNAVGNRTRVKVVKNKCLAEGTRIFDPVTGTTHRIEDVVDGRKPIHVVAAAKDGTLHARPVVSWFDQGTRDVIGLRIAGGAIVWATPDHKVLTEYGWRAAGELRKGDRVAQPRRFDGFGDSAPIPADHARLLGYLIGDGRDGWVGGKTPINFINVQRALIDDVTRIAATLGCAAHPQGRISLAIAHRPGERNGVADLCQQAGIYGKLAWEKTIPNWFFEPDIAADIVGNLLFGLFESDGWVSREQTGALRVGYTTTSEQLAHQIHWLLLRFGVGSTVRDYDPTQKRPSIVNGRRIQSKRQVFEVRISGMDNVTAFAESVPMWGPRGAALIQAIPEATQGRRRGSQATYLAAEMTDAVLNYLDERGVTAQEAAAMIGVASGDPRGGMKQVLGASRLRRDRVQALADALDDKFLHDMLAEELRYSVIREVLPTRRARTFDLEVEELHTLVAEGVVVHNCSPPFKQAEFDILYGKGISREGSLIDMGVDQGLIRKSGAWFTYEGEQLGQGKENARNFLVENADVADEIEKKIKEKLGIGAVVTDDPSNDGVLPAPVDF

[2] = biological target: T2, Replicative DNA helicase DnaB (Mycobacterium tuberculosis, UniProt P9WMR3); assay: DnaB intein splicing inhibitors, dose response, biochemical, cell-free fluorescence (AID 449749); type: functional
T2 sequence (P9WMR3 whole entry): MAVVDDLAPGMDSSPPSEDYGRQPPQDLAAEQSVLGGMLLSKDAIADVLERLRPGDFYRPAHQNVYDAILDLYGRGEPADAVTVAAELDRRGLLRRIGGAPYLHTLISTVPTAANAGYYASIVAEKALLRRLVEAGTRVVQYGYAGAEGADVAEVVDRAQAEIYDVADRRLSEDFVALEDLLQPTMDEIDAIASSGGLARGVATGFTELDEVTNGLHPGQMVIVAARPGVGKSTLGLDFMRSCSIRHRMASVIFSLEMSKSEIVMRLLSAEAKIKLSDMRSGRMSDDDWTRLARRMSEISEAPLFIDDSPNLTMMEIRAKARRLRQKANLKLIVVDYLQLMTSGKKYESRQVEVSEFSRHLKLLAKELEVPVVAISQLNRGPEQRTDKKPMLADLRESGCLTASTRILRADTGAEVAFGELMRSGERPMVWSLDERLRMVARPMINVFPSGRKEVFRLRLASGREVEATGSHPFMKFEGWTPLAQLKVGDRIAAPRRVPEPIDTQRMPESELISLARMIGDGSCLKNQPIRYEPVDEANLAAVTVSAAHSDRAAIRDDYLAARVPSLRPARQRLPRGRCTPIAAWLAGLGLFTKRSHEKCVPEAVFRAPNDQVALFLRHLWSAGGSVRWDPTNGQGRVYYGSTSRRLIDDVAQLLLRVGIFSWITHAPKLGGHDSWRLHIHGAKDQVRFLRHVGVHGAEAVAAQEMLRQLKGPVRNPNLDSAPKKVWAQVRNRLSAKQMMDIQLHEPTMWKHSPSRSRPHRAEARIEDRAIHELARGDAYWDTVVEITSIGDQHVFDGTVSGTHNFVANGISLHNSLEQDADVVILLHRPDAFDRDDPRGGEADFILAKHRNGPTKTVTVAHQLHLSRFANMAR

[3] = biological target: T3, Rac GTPase-activating protein 1 (Homo sapiens, UniProt Q9H0H5); assay: MgcRacGAP GTPase-activating activity inhibitors, confirmation, biochemical, ADP Hunter fluorescence, primary and confirmatory (AID 624330); type: functional
T3 sequence (Q9H0H5 whole entry): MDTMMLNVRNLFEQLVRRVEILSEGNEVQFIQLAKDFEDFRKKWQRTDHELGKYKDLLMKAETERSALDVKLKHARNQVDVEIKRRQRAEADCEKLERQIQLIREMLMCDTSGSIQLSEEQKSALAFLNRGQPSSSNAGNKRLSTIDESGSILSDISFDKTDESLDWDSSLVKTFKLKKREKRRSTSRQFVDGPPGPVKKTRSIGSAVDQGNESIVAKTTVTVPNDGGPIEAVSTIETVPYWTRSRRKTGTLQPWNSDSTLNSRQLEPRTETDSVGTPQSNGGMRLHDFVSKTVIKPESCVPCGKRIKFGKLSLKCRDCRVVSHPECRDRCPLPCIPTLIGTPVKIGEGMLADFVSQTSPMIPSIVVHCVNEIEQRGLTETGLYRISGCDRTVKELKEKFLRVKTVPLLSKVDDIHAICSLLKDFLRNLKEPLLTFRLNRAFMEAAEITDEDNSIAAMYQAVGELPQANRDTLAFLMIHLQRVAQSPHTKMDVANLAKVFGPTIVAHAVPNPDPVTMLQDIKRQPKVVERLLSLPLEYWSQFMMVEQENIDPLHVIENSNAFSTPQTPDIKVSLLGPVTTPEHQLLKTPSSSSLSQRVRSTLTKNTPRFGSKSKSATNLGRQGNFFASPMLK

[4] = biological target: FAD-linked sulfhydryl oxidase ALR (Homo sapiens, UniProt P55789); assay: inhibitors of human ALR sulfhydryl oxidase, dose response, biochemical, H2O2 detection, luminescence, cherry-pick (AID 493248)
[5] = biological target: Luciferin 4-monooxygenase (Photinus pyralis, UniProt P08659); assay: firefly luciferase enzyme inhibitors, dose response, biochemical, luminescence (AID 1891)
[6] = Luminescence Cell-Based Dose Confirmation HTS to Identify Inhibitors of Platelet Dense Granule Release. [Related pubchem assays: 1663 (Primary HTS), 1678 (Summary of Project)]; type: functional
[7] = inhibitors of intracellular T. cruzi replication, confirmation, NIH3T3 host cells, beta-gal luminescence (AID 2044); type: functional, cell-based;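 note: intracellular parasites grown in NIH/3T3 mouse fibroblasts as host cells; luminescent beta-galactosidase reporter signal from transgenic T. cruzi replicating inside host cells; inhibitors lower the luminescence signal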
[8] = cytotoxicity toward NIH3T3 fibroblasts, dose response, counter-screen, cell-based, ATP luminescence, mouse fibroblasts (AID 2010); type: functional;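 note: cells exposed to compound for about 90 hours before reading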
[9] = biological target: T4, Streptokinase A (Streptococcus pyogenes serotype M1, UniProt P10520); assay: S. pyogenes streptokinase expression inhibitors, potency, dose response, plasminogen activation absorbance, OD405 (AID 1914); type: functional, Streptococcus pyogenes M1 GAS;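 note: secreted streptokinase activity via plasminogen activation per viability signal from cell pellet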
T4 sequence (P10520 whole entry): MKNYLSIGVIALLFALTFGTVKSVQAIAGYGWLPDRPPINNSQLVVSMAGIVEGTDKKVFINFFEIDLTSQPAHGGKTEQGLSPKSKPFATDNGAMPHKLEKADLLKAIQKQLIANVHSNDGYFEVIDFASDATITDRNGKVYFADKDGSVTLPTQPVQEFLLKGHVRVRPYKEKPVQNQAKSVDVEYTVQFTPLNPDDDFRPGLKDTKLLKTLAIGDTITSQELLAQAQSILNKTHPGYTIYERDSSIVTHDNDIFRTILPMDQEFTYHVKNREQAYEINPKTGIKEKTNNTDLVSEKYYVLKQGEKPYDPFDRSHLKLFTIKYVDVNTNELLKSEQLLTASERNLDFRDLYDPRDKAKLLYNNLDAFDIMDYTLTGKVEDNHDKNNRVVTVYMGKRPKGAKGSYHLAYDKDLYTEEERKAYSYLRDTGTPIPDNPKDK

[10] = NIH-3T3 fibroblast cytotoxicity, dose response, cytotoxicity control, cell-based, fluorescence, Alamar Blue, secondary assay (AID 2327); type: functional;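 note: NIH-3T3 mouse fibroblasts cultured with fluconazole at 8 µg/mL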
[11] = C. albicans growth with fluconazole, confirmation, fluorescence, retest (AID 2467); type: functional, cell-based

FAD-linked sulfhydryl oxidase ALR, sequence (P55789 whole entry): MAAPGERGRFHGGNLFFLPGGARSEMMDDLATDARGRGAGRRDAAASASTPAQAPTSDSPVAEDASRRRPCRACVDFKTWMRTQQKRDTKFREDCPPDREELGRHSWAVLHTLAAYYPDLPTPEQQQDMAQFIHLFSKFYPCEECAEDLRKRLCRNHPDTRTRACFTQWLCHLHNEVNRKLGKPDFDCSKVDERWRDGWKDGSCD
Luciferin 4-monooxygenase, sequence (P08659 whole entry): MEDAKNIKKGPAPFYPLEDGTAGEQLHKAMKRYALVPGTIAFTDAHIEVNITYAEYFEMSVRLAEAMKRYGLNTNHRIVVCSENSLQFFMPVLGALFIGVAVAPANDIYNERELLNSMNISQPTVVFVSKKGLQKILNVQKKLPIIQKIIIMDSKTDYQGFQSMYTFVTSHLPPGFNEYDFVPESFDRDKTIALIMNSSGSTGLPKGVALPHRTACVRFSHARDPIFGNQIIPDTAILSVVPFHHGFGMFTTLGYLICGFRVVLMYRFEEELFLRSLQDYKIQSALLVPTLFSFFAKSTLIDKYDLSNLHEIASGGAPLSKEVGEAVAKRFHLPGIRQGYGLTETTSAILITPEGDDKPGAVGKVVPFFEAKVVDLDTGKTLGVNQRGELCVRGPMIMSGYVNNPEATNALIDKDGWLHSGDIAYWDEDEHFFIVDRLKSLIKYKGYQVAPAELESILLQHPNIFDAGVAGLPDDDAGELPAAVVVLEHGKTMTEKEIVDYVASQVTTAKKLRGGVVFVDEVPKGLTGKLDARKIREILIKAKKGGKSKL

In the case of `CC1CCCN(C(=O)COc2ccc(NC(=O)c3cccs3)cc2)C1` (stereo not given), the EC50 [1] is reported as > 380 µM (inactive) and the AC50 [2] is reported as > 380 µM (inactive).
For `COc1ccc(N2CCN(C(=O)CCCn3nnnc3CN3CCOCC3)C(C)C2)cc1` (stereo not given), the IC50 [3] was 150 µM (active).
In the case of `C=CCn1c(SCc2cccc(F)c2)nc2cc(C(=O)N3CCC(C(N)=O)CC3)ccc2c1=O`, the AC50 [4] is reported as 2.27 µM (active).
In the case of `CCN(CC(=O)Nc1ccc(S(=O)(=O)N2CCCC2)cc1)CC(=O)Nc1cccc(OC)c1`, the IC50 [3] is reported as 35.5 µM (active).
With `CCOc1c(OC(C)=O)ccc(/C=C/c2ccc3cccc(OC)c3n2)c1[N+](=O)[O-]` the EC50 [5] was > 112 µM (not active) and the EC50 [6] was 17.6 µM (active).
In the case of `O=[N+]([O-])c1c(O)nc(/C=C\c2cccc(F)c2)nc1O`, the AC50 [4] is reported as 1.76 µM (active).
For `Cc1csc(SCC(=O)Nc2nc(-c3ccccc3)cs2)n1`, the EC50 [5] was > 112 µM (not active) and the EC50 [6] was > 112 µM (not active).
With `O=C1CSC(c2ccccn2)N1c1cccc(Cl)c1` (stereo not given) the AC50 [4] was 0.394 µM (active).
For `COc1ccccc1CN1CCN(Cc2cc(OC)c(OC)cc2OC)CC1`, the IC50 [3] was 73.5 µM (active).
With `CCOC(=O)C1CCCN(C(S)=Nc2ccc(Nc3ccccc3)cc2)C1` (stereo not given) the IC50 [3] was 51 µM (active).
For `CCOC(=O)c1sc(=S)n(CC)c1NC(=O)C1CC1`, the EC50 [5] was > 112 µM (not active) and the EC50 [6] was > 112 µM (not active).
With `CCn1c(SCc2cccc(C(=O)O)c2)nnc1-c1ccccc1` the EC50 [5] was > 112 µM (not active) and the EC50 [6] was > 112 µM (not active).
In the case of `CCOc1cc(NC(=O)c2ccccc2C(=O)O)c(OCC)cc1NC(=O)c1ccccc1F`, the EC50 [7] is reported as 5.83 µM (active), the IC50 [3] is reported as 54.8 µM (active) and the EC50 [8] is reported as > 60 µM (not active).
In the case of `Clc1ccc(/C=C/c2ncc3ccccn23)cc1`, the AC50 [4] is reported as 8.17 µM (active).
For `CCN1CCCC1CNC(=O)CS(=O)(=O)Cc1nc(-c2ccccc2C)oc1C` (stereo not given), the EC50 [5] was > 112 µM (not active) and the EC50 [6] was 64.8 µM (active).
For `CC(C)NC(=S)NC(c1ccccc1)(c1ccccc1)c1ccccc1`, the EC50 [1] was 136 µM (inconclusive), the EC50 [9] was 11.7 µM (active) and the AC50 [2] was 3.07 µM (active).
For `COc1cc(-n2c(S)nnc2-c2ccccc2)c(OC)cc1Cl`, the AC50 [4] was 12.3 µM (active).
With `c1ccc2nc(N3CCCC3)c(N3CCCC3)nc2c1` the AC50 [4] was 0.034 µM (active).
With `COc1ccccc1-n1c(=O)c2c3c(sc2n2c(S)nnc12)CCC3` the IC50 [3] was 50.3 µM (active).
With `Oc1c(C(c2cccs2)N2CCOCC2)sc2ncnn12` (stereo not given) the EC50 [5] was > 112 µM (not active) and the EC50 [6] was > 112 µM (not active).
For `COc1ccc(C(=O)Nc2ccc3[nH]ccc3c2)cc1OC`, the EC50 [5] was > 112 µM (not active) and the EC50 [6] was > 112 µM (not active).
For `CCOc1cc(/C=C/c2cccc[n+]2C)ccc1O`, the IC50 [3] was 22.9 µM (active).
For `CC(=O)N1N=C(c2ccncc2)OC12CCCC2`, the EC50 [5] was > 112 µM (not active) and the EC50 [6] was > 112 µM (not active).
For `Oc1ccc(O)c2c1C1c3ccccc3C2c2ccccc21`, the EC50 [1] was 2.08 µM (active), the EC50 [10] was 25 µM (active) and the EC50 [11] was 2.94 µM (active). For the same molecule, the AC50 [2] was 34.5 µM (active).
In the case of `Cc1nc(SCc2ccc(Cl)c(Cl)c2)ncc1C(=O)O`, the EC50 [10] is reported as > 150 µM (inactive), the EC50 [11] is reported as 0.78 µM (active) and the AC50 [4] is reported as 0.027 µM (active).
With `O=C(O)c1cccc(S(=O)(=O)Nc2ccc(O)c(Sc3nc4ccccc4s3)c2)c1` the AC50 [4] was 0.176 µM (active).
In the case of `O=C(NCc1ccccc1)C(c1cccnc1)N(C(=O)c1ccccn1)c1ccc(F)cc1` (stereo not given), the EC50 [5] is reported as > 112 µM (not active) and the EC50 [6] is reported as > 112 µM (not active).
With `COC(CN(C(=O)CCl)C(C(=O)NC1CCCC(C)C1C)c1ccc(C)cc1)OC` (stereo not given) the EC50 [1] was 2.11 µM (active) and the AC50 [2] was 24.6 µM (active).
For `Nc1cccc(-c2cn3cccnc3n2)c1`, the AC50 [4] was 0.232 µM (active).
In the case of `O=C(O)/C=C/C(=O)Nc1ccc(SC(F)(F)C(F)(F)C(F)(F)F)cc1`, the EC50 [1] is reported as 2.59 µM (active) and the AC50 [2] is reported as 11.7 µM (active).
For `CCc1ccc(-c2cc(C)no2)cc1S(=O)(=O)NCCN1CCC(C)CC1`, the EC50 [5] was > 112 µM (not active) and the EC50 [6] was > 112 µM (not active).
In the case of `Cc1onc(-c2ccccc2Cl)c1C(=O)N1CCc2ccccc2C1`, the EC50 [5] is reported as > 112 µM (not active) and the EC50 [6] is reported as > 112 µM (not active).
In the case of `Cc1c(Cl)cccc1Nc1nnc(S)s1`, the IC50 [3] is reported as 108 µM (active).
With `COc1cc(/C=C/C(=O)OCC(=O)Nc2cccc(F)c2)ccc1O` the IC50 [3] was 41.6 µM (active).
With `CCc1n[nH]c2c1C(c1ccc(C)o1)C(C#N)=C(N)O2` (stereo not given) the EC50 [1] was 4.31 µM (active) and the AC50 [2] was 37.3 µM (active).
In the case of `O=C(N/N=C/c1ccc(O)c(O)c1)c1ccc(-n2cnnn2)cc1`, the IC50 [3] is reported as 18.6 µM (active).
In the case of `C/C(=N\Nc1nc2ccccc2[nH]1)c1ccc(C)o1`, the AC50 [4] is reported as 0.299 µM (active) and the IC50 [3] is reported as 69 µM (active).
For `COc1ccc(COC(=O)N/N=C(\C)CC(=O)Nc2ccc(Cl)cn2)cc1`, the EC50 [1] was 4.27 µM (active) and the AC50 [2] was 5.46 µM (active).
With `Sc1nncn1/N=C/c1ccccn1` the AC50 [4] was 3.06 µM (active).

Reference: ChEMBL document CHEMBL1201862, “PubChem BioAssay data set” (2004)
